In brackets after ≈: the same amount, converted by molar mass. Counter-ions that a name gives are not always drawn.
What was measured:
[1] = Stability in buffer at various pH values; type: physicochemical
Description: 0.3 mg of the test substance is weighed into a 2 ml HPLC vial and 0.5 ml of acetonitrile or acetonitrile/DMSO (9:1) is added. The substance is dissolved by putting the sample vessel in an ultrasonic bath for about 10 seconds. Then 0.5 ml of the respective (buffer) solution is added, and the sample is again treated in the ultrasonic bath.
• pH 4: 1 liter of Millipore water is adjusted to pH 4.0 with 1 N hydrochloric acid; • pH 5: 0.096 mol of citric acid and 0.2 mol of sodium hydroxide ad 1 liter of water; • pH 7.4: 90.0 g of sodium chloride, 13.61 g of potassium dihydrogen phosphate and 83.35 g of 1 N sodium hydroxide solution are made up to 1 liter with water; this solution is then further diluted 1:10 with Millipore water. • pH 8: 0.013 mol of borax and 0.021 mol of hydrochloric acid ad 1 liter of water.
5 μl portions of the sample solution are analyzed by HPLC for their content of unchanged test substance, and of parent substance (A) produced, every hour over a period of 24 hours at 37° C. The percentage areas of the appropriate peaks are used for quantification.
HPLC method for Examples 1-21:
Agilent 1100 with DAD (G1314A), binary pump (G1312A), autosampler (G1329A), column oven (G1316A), thermostat (G1330A); column: Kromasil 100 C18, 60 mm×2.1 mm, 3.5 μm; column temperature: 30° C.; eluent A: water+5 ml of perchloric acid/liter, eluent B: acetonitrile; gradient: 0-1.0 min 98% A, 2% B; 1.0-9.0 min 2% A, 98% B; 9.0-13.0 min 2% A, 98% B; 13.0-13.5 min 98% A, 2% B; 13.5-15.0 min 98% A, 2% B; flow rate: 0.75 ml/min; UV detection: 210 nm.
HPLC method for Examples 22-40:
The ratios of the peak areas (F) at the respective time points in relation to the peak areas at the starting time are shown in Table 3 for representative exemplary embodiments: […]

[2] = Determination of the solubility (24 h shaking at room temperature, ultracentrifugation, HPLC); type: physicochemical; details: thermodynamic from solid
Description: The test substance is suspended in water or dilute hydrochloric acid (pH 4) [Examples 1-21] or in 5% strength aqueous dextrose solution [Examples 22-40]. This suspension is shaken at room temperature for 24 h. After ultracentrifugation at 224 000 g for 30 min, the supernatant is diluted with DMSO and analyzed by HPLC. A two-point calibration plot of the test compound in DMSO is used for quantification.
Agilent 1100 with DAD (G1315A), quat. pump (G1311A), autosampler CTC HTS PAL, degasser (G1322A) and column thermostat (G1316A); column: Phenomenex Gemini C18, 5 μm, 50 mm×2 mm; temperature: 40° C.; eluent A: water/phosphoric acid pH 2, eluent B: acetonitrile; flow rate: 0.7 ml/min; gradient: 0-0.5 min 85% A, 15% B; ramp 0.5-3 min 10% A, 90% B; 3-3.5 min 10% A, 90% B; ramp 3.5-4 min 85% A, 15% B; 4-5 min 85% A, 15% B.
Agilent 1100 with DAD (G1315A), quat. pump (G1311A), autosampler CTC HTS PAL, degasser (G1322A) and column thermostat (G1316A); column: VDSoptilab Kromasil 100 C18, 3.5 μm, 60 mm×2.1 mm; temperature: 30° C.; eluent A: water+5 ml of perchloric acid/liter, eluent B: acetonitrile; flow rate: 0.75 ml/min; gradient: 0-0.5 min 98% A, 2% B; ramp 0.5-4.5 min 10% A, 90% B; 4.5-6 min 10% A, 90% B; ramp 6.5-6.7 min 98% A, 2% B; 6.7-7.5 min 98% A, 2% B.

[3] = system: heart rate of anesthetized rats; experiment: Influence on the heart rate of anesthetized rats; type: in vivo; details: maximum decrease in the first 30 min after i.v. bolus of 100 μg/kg of (A) or equivalent dosages; anesthetized male Wistar rats
Description: Male Wistar rats with a body weight above 250 g are employed. In the night before the experiment, the animals receive no feed but still have free access to drinking water. Preparation and investigations are carried out under Trapanal® anesthesia (100 mg/kg i.p.). Injection and infusion take place through a catheter in the jugular vein, and the blood pressure is recorded via a catheter in the femoral artery (transducer: Braun, Melsungen). After the preparation, the animals are connected to a continuous infusion of physiological saline solution to compensate fluid losses. Test substance or placebo solution are administered intravenously as bolus after an equilibration time of about 1 h. Heart rate and arterial blood pressure are recorded during the equilibration and over a period of at least 30 min after the bolus injection with the aid of a digital evaluation program.
Table 5 lists the maximum heart rate decrease in the first 30 min after an i.v. bolus of 100 μg/kg of the active substance (A) or of equivalent dosages of representative exemplary embodiments: […]

[4] = i.v. pharmacokinetics in Wistar rats; type: in vivo; details: after i.v. bolus administration, male Wistar rats
Description: (§1) On the day before administration of the substance, a catheter for obtaining blood is implanted in the jugular vein of the experimental animals (male Wistar rats, body weight 200-250 g) under Isofluran® anesthesia.
(§2) On the day of the experiment, a defined dose of the test substance is administered as solution into the tail vein using a Hamilton® glass syringe (bolus administration, duration of administration <10 s). Blood samples (8-12 time points) are taken through the catheter sequentially over the course of 24 h after administration of the substance. Plasma is obtained by centrifuging the samples in heparinized tubes. Acetonitrile is added to a defined plasma volume per time point to precipitate proteins. After centrifugation, test substance and, where appropriate, known cleavage products of the test substance in the supernatant are determined quantitatively using a suitable LC/MS-MS method.
The measured plasma concentrations are used to calculate pharmacokinetic parameters of the test substance and of the active ingredient compound (A) liberated therefrom, such as AUC, Cmax, T1/2 (half-life) and CL (clearance).

[5] = Oral pharmacokinetics in Wistar rats; type: in vivo; details: after oral administration (gavage), male Wistar rats
Description: as §1
as §2, with “stomach by gavage.” for “tail vein using a Hamilton® glass syringe (bolus administration, duration of administration <10 s).”
The measured plasma concentrations are used to calculate pharmacokinetic parameters of the test substance and of the active ingredient compound (A) liberated therefrom, such as AUC, Cmax, T1/2 (half-life).

% test substance after 4 h [F(t = 4 h) × 100/F(t = 0 h)] ([1]; pH 4, 37° C.) | % test substance after 24 h [F(t = 24 h) × 100/F(t = 0 h)] ([1]; pH 4, 37° C.) | % test substance after 4 h [F(t = 4 h) × 100/F(t = 0 h)] ([1]; pH 8, 37° C.) | % test substance after 24 h [F(t = 24 h) × 100/F(t = 0 h)] ([1]; pH 8, 37° C.) | solubility at 24 h ([2]; aqueous buffer, dilute hydrochloric acid (pH 4)) | % test substance after 4 h [F(t = 4 h) × 100/F(t = 0 h)] ([1]; pH 7.4, 37° C.) | % test substance after 24 h [F(t = 24 h) × 100/F(t = 0 h)] ([1]; pH 7.4, 37° C.) | solubility at 24 h ([2]; saline or isotonic, 5% strength aqueous dextrose solution) | SMILES | Heart rate decrease [3] | Detectability of the test substance (prodrug) in plasma [4] | Detectability of the test substance (prodrug) in plasma [5]
93% | 91% | 90% | 76% | 240 µg/mL (≈ 397 µM) | – | – | – | CN(C)CC(=O)OCCOc1ccc(-c2c(C#N)c(N)nc(SCc3csc(-c4ccc(Cl)cc4)n3)c2C#N)cc1 [Example 15, 2-{4-[2-Amino-6-({[2-(4-chlorophenyl)-1,3-thiazol-4-yl]methyl}thio)-3,5-dicyanopyridin-4-yl]-phenoxy}ethyl (N,N-dimethyl)glycinate] | 21% | no longer detectable in plasma even at the first measurement point | no longer detectable in plasma even at the first measurement point
100% | 100% | – | – | – | 0% | 0% | > 500 µg/mL | N#Cc1c(N)nc(SCc2csc(-c3ccc(Cl)cc3)n2)c(C#N)c1-c1ccc(OCCOC(=O)[C@@H](N)CCCN)cc1 [Example 22, 2-{4-[2-Amino-6-({[2-(4-chlorophenyl)-1,3-thiazol-4-yl]methyl}thio)-3,5-dicyanopyridin-4-yl]-phenoxy}ethyl L-ornithinate dihydrochloride] | 13% | no longer detectable in plasma even at the first measurement point | no longer detectable in plasma even at the first measurement point
